Test: Agonist activity at RORgammat in C57 mouse CD4+ T cells assessed as induction of Th17 cells differentiation by measuring increase in IL17 production measured after 4 days by flow cytometry analysis

Compound | EC50 [nM]
CC(=O)N1CCN(c2ccc3c(c2)CCN(S(=O)(=O)N(C)Cc2ccccc2C(F)(F)F)C3)CC1 | 1120
CC(=O)N1CCN(c2ccc3c(c2)CCN(S(=O)(=O)N(C)Cc2ccccc2Cl)C3)CC1 | 230
CC(=O)N1CCN(c2ccc3c(c2)CCN(S(=O)(=O)N(C)Cc2c(F)cccc2Cl)C3)CC1 | 220
